Assay results: the supplement of paper PMC10307832

Columns and labels:
Assay in all cases: relative viability (nuclei count vs DMSO), 5 days (fraction); higher = more cells survive
Adavosertib + AZD7762 = compound: C=CCn1c(=O)c2cnc(Nc3ccc(N4CCN(C)CC4)cc3)nc2n1-c1cccc(C(C)(C)O)n1 [Adavosertib] + NC(=O)Nc1cc(-c2cccc(F)c2)sc1C(=O)N[C@H]1CCCNC1 [AZD7762] (partner 0.2 µM)
How it was run: (§1)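 Values are medians from duplicate plates. Each reflects relative viability, defined as the nuclei count of treated wells over that of vehicle wells. Lung cancer cell lines in 1536-well plates were pin-tool dosed one day after seeding with one drug alone or with a fixed anchor-drug dose plus five library-drug doses (not always all listed) in √10 steps, then fixed, stained and imaged at 4× after 5 days.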

Nelarabine + Phenformin = compound: COc1nc(N)nc2c1ncn2[C@@H]1O[C@H](CO)[C@@H](O)[C@@H]1O [Nelarabine] + N=C(N)NC(=N)NCCc1ccccc1 [Phenformin] (partner 250 µM)
How it was run: as §1

Adavosertib + Tozasertib = compound: C=CCn1c(=O)c2cnc(Nc3ccc(N4CCN(C)CC4)cc3)nc2n1-c1cccc(C(C)(C)O)n1 [Adavosertib] + Cc1cc(Nc2cc(N3CCN(C)CC3)nc(Sc3ccc(NC(=O)C4CC4)cc3)n2)n[nH]1 [Tozasertib] (partner 0.1 µM)
How it was run: as §1

Adavosertib + Pemetrexed = compound: C=CCn1c(=O)c2cnc(Nc3ccc(N4CCN(C)CC4)cc3)nc2n1-c1cccc(C(C)(C)O)n1 [Adavosertib] + Nc1nc2[nH]cc(CCc3ccc(C(=O)N[C@@H](CCC(=O)O)C(=O)O)cc3)c2c(=O)[nH]1 [Pemetrexed] (partner 0.2 µM)
How it was run: as §1

| Cell Line | relative viability (Adavosertib + AZD7762; first compound 0.01 µM) | relative viability (Adavosertib + AZD7762; first compound 0.03162 µM) | relative viability (Adavosertib + AZD7762; first compound 0.1 µM) | relative viability (Adavosertib + AZD7762; first compound 0.3162 µM) | relative viability (Nelarabine + Phenformin; first compound 0.01 µM) | relative viability (Nelarabine + Phenformin; first compound 0.03162 µM) | relative viability (Nelarabine + Phenformin; first compound 0.1 µM) | relative viability (Nelarabine + Phenformin; first compound 0.3162 µM) | relative viability (Nelarabine + Phenformin; first compound 1 µM) | relative viability (Adavosertib + Tozasertib; first compound 0.01 µM) | relative viability (Adavosertib + Tozasertib; first compound 0.03162 µM) | relative viability (Adavosertib + Tozasertib; first compound 0.1 µM) | relative viability (Adavosertib + Tozasertib; first compound 0.3162 µM) | relative viability (Adavosertib + Pemetrexed; first compound 0.01 µM) | relative viability (Adavosertib + Pemetrexed; first compound 0.03162 µM) | relative viability (Adavosertib + Pemetrexed; first compound 0.1 µM) | relative viability (Adavosertib + Pemetrexed; first compound 0.3162 µM) |
| --- | --- | --- | --- | --- | --- | --- | --- | --- | --- | --- | --- | --- | --- | --- | --- | --- | --- |
| NCI-H647 | 0.351 | 0.358 | 0.167 | 0.0858 | 0.641 | 0.301 | 0.631 | 0.501 | 0.427 | 0.273 | 0.276 | 0.245 | 0.317 | 0.155 | 0.159 | 0.141 | 0.123 |
| NCI-H2347 | 0.791 | 0.674 | 0.476 | 0.329 | 0.45 | 0.574 | 0.379 | 0.445 | 0.381 | 0.476 | 0.674 | 0.718 | 0.511 | 0.463 | 0.422 | 0.437 | 0.439 |
| NCI-H1395 | 0.377 | 0.354 | 0.345 | 0.316 | 0.487 | 0.401 | 0.474 | 0.455 | 0.423 | 0.757 | 0.822 | 0.853 | 0.733 | 0.766 | 0.938 | 0.604 | 0.689 |
| NCI-H661 | – | – | – | – | 0.282 | 0.277 | 0.276 | 0.274 | 0.258 | 0.353 | 0.36 | 0.339 | 0.349 | 0.915 | 0.834 | 0.74 | 0.415 |
| NCI-H1703 | 0.105 | 0.13 | 0.122 | 0.118 | – | – | – | – | – | – | – | – | – | – | – | – | – |
| SK-MES-1 | – | – | – | – | 0.705 | 0.658 | 0.643 | 0.757 | 0.684 | 0.898 | 0.929 | 0.92 | 0.285 | 0.958 | 0.916 | 0.754 | 0.338 |
| NCI-H2023 | – | – | – | – | 0.395 | 0.357 | 0.4 | 0.371 | 0.371 | 0.453 | 0.391 | 0.414 | 0.266 | 0.114 | 0.163 | 0.164 | 0.114 |
| NCI-H1650 | – | – | – | – | 0.39 | 0.427 | 0.379 | 0.436 | 0.445 | 0.415 | 0.464 | 0.563 | 0.299 | 0.387 | 0.366 | 0.281 | 0.278 |
| UMC-11 | – | – | – | – | 0.33 | 0.325 | 0.347 | 0.294 | 0.31 | 0.19 | 0.201 | 0.196 | 0.181 | 0.791 | 0.725 | 0.763 | 0.594 |
| NCI-H1792 | 0.683 | 0.652 | 0.452 | 0.135 | 0.211 | 0.4 | 0.261 | 0.3 | 0.323 | – | – | – | – | 0.858 | 0.756 | 0.718 | 0.71 |
| NCI-H520 | – | – | – | – | 0.811 | 0.343 | 0.638 | 0.806 | 0.513 | 0.406 | 0.437 | 0.347 | 0.411 | 0.762 | 0.686 | 0.616 | 0.297 |
